Results: patent US4927959A, “Alprenolol derivatives” (Snow Brand Milk Products Co., Ltd., priority 1987, dated 1990)
Structures can show the parent of a compound that is named as a salt.

Experiments:
[1] = conversion test to the parent drug (alprenolol) in buffer solution having the pH of 7.4; type: physicochemical; conditions: hydrochloride, Britton-Robinson buffer pH 7.4, 37° C.; for half-life: read-out: Half-life time (T 1/2) (converted); for 50% producing time of the parent drug (T' 1/2): unit assumed
Protocol: Assuming the absorption and distribution of the derivatives in vivo, conversion tests to the parent drug (alprenolol) were carried out by the following method in buffer solutions having the pH of 2, 4 and 7.4.
Britton-Robinson buffer solutions having the pH of 2, 4 and 7.4 were prepared. To each 800 μl of the buffer solution, 200 μl of an aqueous solution of each compound which had been adjusted to a concentration of 2 mg/ml were added. The resulting mixture was incubated at 37° C.
From each reaction mixture, 100 μl of sample were collected after 0, 1, 3, 5, 7 and 24 hours, diluted with a developer and subjected to high performance liquid chromatography (abbreviated as HPLC) under following conditions.
(d) Conditions of HPLC in the conversion test;
(d) Conditions of HPLC in the above conversion test;
As to the compounds (hydrochloride) described in the above (1)-(4), the conversion rate to the parent drug was examined in a buffer solution having the pH of 7.4 assuming blood pH. Table 1 illustrates half-life time (T 1/2) of each compound in the above buffer solution and 50% producing time (T' 1/2) of the parent drug in the same buffer solution.

[2] = oral administration to dogs, plasma levels of the parent drug and AUC (improving effect on bioavailability); type: in vivo, Female beagle dogs; conditions: beagle dogs; for relationship between dose and AUC (area under the plasma concentration curve) (FIG. 14): alprenolol hydrochloride 2-30 mg/kg, hydrochlorides of (1) and (2) equivalent to 10 and 20 mg/kg; for plasma concentration of the parent drug (FIG. 13): hydrochlorides, dose equivalent to 20 mg/kg of alprenolol hydrochloride, 0.5-6 hours, versus alprenolol hydrochloride
Protocol: In the next step, the alprenolol drivative of this invention was orally administered to dogs as experimental animals. The results described below were obtained by investigating the improving effect on bioavailability. Female beagle dogs (a body weight of about 10 kg) were used as the experimental animals. The 12 dogs were divided into 2 groups of 6 dogs and each group was alternately subjected to the experiment with intervals of 2 weeks. To the dogs, 2, 5, 10, 20 and 30 mg/kg of alprenolol hydrochloride 13.50 and 27.00 mg/kg of the compound (1) hydrochloride, (equivalent to 10, 20 mg/kg of the alprenolol hydrochloride, respectively) and 13.99 and 27.98 mg/kg of the compound (2) hydrochloride (equivalent to 10 and 20 mg/kg of alprenolol hydrochloride, respectively) were orally administered. Blood was collected respectively after 0.5, 1, 2, 4 and 6 hours. The plasma separated from the blood was extracted with ethanol. Plasma levels of the parent drug were determined by HPLC. The conditions for the HPLC analysis are shown as follows: |Column ODS 4.6.phi. × 250 mm |Flow rate 0.8 ml/min |Eluent CH3 CN:CH3 OH:50 mM KH2 PO4

[3] = cited from earlier work

| SMILES | half-life [1] [h] | 50% producing time of the parent drug (T' 1/2) [1] [h] | relationship between dose and AUC (area under the plasma concentration curve) (FIG. 14) [2] | plasma concentration of the parent drug (FIG. 13) [2] | bioavailability of alprenolol in the oral administration [3] [%] |
| --- | --- | --- | --- | --- | --- |
| C=CCc1ccccc1OCC(CNC(C)C)OC(=O)/C=C\C(=O)O (centres unmarked) [(4), (z)-Butenedioic acid mono[1-{(2-allylphenoxy)methyl}-{2-(1-methylethyl)amino}ethyl]ester] | 0.9 | 3 |  |  |  |
| C=CCc1ccccc1OCC(O)CNC(C)C (centres unmarked) [alprenolol] |  |  |  |  | 15 |
| C=CCc1ccccc1OCC(O)CNC(C)C (centres unmarked) [alprenolol hydrochloride, reference compound] |  |  | non-linear relationship with the threshold due to the first-pass effect |  |  |

Further lines, with some results ahead:

| half-life [1] [h] | 50% producing time of the parent drug (T' 1/2) [1] [h] | relationship between dose and AUC (area under the plasma concentration curve) (FIG. 14) [2] | SMILES | plasma concentration of the parent drug (FIG. 13) [2] | bioavailability of alprenolol in the oral administration [3] [%] |
| --- | --- | --- | --- | --- | --- |
| 4.9 | 5 | linear relationships | C=CCc1ccccc1OCC(CNC(C)C)OC(=O)CCCC(=O)O (centres unmarked) [(2), pentanedioic acid mono[1-{(2-allylphenoxy)methyl}-{2-(1-methylethyl)amino}ethyl]ester hydrochloride] | significantly high plasma concentration of the parent drug |  |
| 1.3 | 2 |  | C=CCc1ccccc1OCC(CNC(C)C)OC(=O)CCCC(=O)OCC (centres unmarked) [(3), 4-Ethoxycarbonylbutanoic acid mono[1-{(2-allylphenoxy)methyl}-{2-(1-methylethyl)amino}ethyl]ester] |  |  |
| 7.4 | 5 | linear relationships | C=CCc1ccccc1OCC(CNC(C)C)OC(=O)CCC(=O)O (centres unmarked) [(1), Butanedioic acid mono[1-{(2-allylphenoxy)methyl}{2-(1-methylethyl)amino}ethyl]ester] | significantly high plasma concentration of the parent drug |  |
